Measurements reported in EP1021178B1, “SELENOPHENE ANTI-TUMOR AGENTS” (Purdue Research Foundation, priority 1996, dated 1997).

Legend:
Test in all cases: NCI human tumor cell panel
[1] = test system: A549/ATCC; format: cell-based; conditions: A549, read-out: Log10 LC50 (converted)
From the text: (§1) Considering the diversity of tumors in terms of cell type, morphology, growth rate and other cellular characteristics, the U.S. National Cancer Institute (NCI) has developed a "disease-oriented" approach to antitumor activity screening (M.R. Boyd, in "Principle of Practice of Oncology" J.T. Devita, S. Hellman, S.A. Rosenberg (Eds.) Vol. 3, PPO Update, No. 10, 1989). This in vitro prescreening system is based on the measurement of antitumor cytotoxicity against human tumor cell line panels consisting of approximately 60 cell lines of major human tumors (including leukemia and slower growing tumor cells such as lung, colon, breast, skin, kidney, etc.). The most important advantage of the new in vitro screening panels is the opportunity to identify compounds that are selectively more cytotoxic to cells of slowly growing solid tumors than to rapidly growing leukemia cells.
(§2) The cytotoxic activity of the present selenophene compounds have been measured utilizing two different assays or screens. The first screen measures the cytotoxicity against a panel of sixty different human tumor cell lines. This assay provides data regarding the general cytotoxicity of an individual compound. In particular this type of assay is useful in identifying compounds which have enhanced cytotoxic activity against slow growing tumors as compared to faster growing tumor cells such as leukemia tumor cell lines. The identification of such compounds is critical since previously identified antitumor agents have low cytotoxic activity against slower growing tumors. […] The specificity of a cytotoxic compound for tumor cell lines relative to normal cells is an important characteristic of an effective antitumor agent.
(§3) Antitumor cytotoxicity data generated from the National Cancer Institute human tumor cell panels can also be expressed in a graphic pattern (mean graph) to display differential cell growth inhibition (K.D. Paull, R.H. Shoemaker, L. Hodes, A. Monks, D.A. Scudiero, L. Rubinstein, J. Plowman and M.R. Boyd, J. Nail. Cancer Inst., 81, 1088, 1989.) In the mean graph, the arithmetic mean of the logarithm of the GI50 (50% growth inhibition), TGI (total growth inhibition) or LC50 (50% lethal concentration) values is used as an anchor point. […] The length of a bar is indicative of differential cytotoxicity against a specific type of tumor cells or tumor panels.
(§4) The antitumor cytotoxicity of the selenophene compounds tested in those in vitro assays was measured by a microculture assay using either a 3-(4,5-dimethylthiazol-2-yl)-2,5-diphenyltetrazolium bromide (MTT) or sulforhodamine B (SRB) based assay. [M.R. Boyd in "Principles and Practices of Oncology," V.T. DeVita, Jr.]. The experiments were conducted at Purdue University in 96-well microtiter plates and the cytotoxic effects of the selenophene compounds on those cells were measured by cell count using a Coulter Z.F. counter (Hialeah, FL). The results are expressed as GI50, the concentration of drug at which cell numbers are reduced to 50% of control cell culture [T.C.K. Chan, C.J. Chang, N.M. Koonchanok and R.L. Geahlen, Biochem. Biophys. Res. Commun., 193, 1152, (1993); S. Hellman and S.A. Rosenberg (Eds.), Vol. 3, PPO Updates, Number 10, (1989).]
(§5) This in vitro microculture assay has an advantage over in vivo assays in that results are obtained within a week as opposed to several months. The MTT assay is based on the production of a dark blue formazan product by dehydrogenase in the mitochondria of live tumor cells after exposure to drug for 6 days [M.C. Alley, D.A. Scudiero, A. Monks, M.L. Hursey, M.J. Czerwinski, D.L. Fine, B.J. Abbott, J.G. Mayo, R.H. Shoemaker and M.R. Boyd, Cancer Res., 48, 589, 1988]. Thus, only live cells are stained and can be measured at 570 nm. […]

[2] = test system: PC-3; format: cell-based; conditions: PC-3, read-out: Log10 LC50 (converted)
From the text: as §1, §2, §3, §4, §5

[3] = test system: MOLT-4; format: cell-based; conditions: MOLT-4, read-out: Log10 LC50 (converted)
From the text: as §1, §2, §3, §4, §5

[4] = test system: NCI-H522; format: cell-based; conditions: NCI-H522, read-out: Log10 LC50 (converted)
From the text: as §1, §2, §3, §4, §5

[5] = test system: HOP-62; format: cell-based; conditions: HOP-62, read-out: Log10 LC50 (converted)
From the text: as §1, §2, §3, §4, §5

[6] = test system: ACHN; format: cell-based; conditions: read-out: Log10 LC50 (converted)
From the text: as §1, §2, §3, §4, §5

[7] = test system: A498; format: cell-based; conditions: A498, read-out: Log10 LC50 (converted)
From the text: as §1, §2, §3, §4, §5

[8] = test system: SF-539; format: cell-based; conditions: SF-539, read-out: Log10 LC50 (converted)
From the text: as §1, §2, §3, §4, §5

[9] = test system: SW-620; format: cell-based; conditions: SW-620, read-out: Log10 LC50 (converted)
From the text: as §1, §2, §3, §4, §5

[10] = test system: OVCAR-8; conditions: OVCAR-8, read-out: Log10 LC50 (converted)
[11] = test system: SF-295; conditions: SF-295, read-out: Log10 LC50 (converted)
[12] = test system: HT29; conditions: HT-29, read-out: Log10 LC50 (converted)
[13] = test system: SK-MEL-5; conditions: SK-MEL-5, read-out: Log10 LC50 (converted)
[14] = test system: TK-10; conditions: TK-10, read-out: Log10 LC50 (converted)
[15] = test system: NCI-H23; conditions: NCI-H23, read-out: Log10 LC50 (converted)
[16] = test system: SNB-75; conditions: for CC50: SNB-75, read-out: Log10 LC50 (converted)
[17] = test system: MDA-MB-435; conditions: MDA-MB-435, read-out: Log10 LC50 (converted)
[18] = test system: EKVX; conditions: read-out: Log10 LC50 (converted)
[19] = test system: MALME-3M; conditions: read-out: Log10 LC50 (converted)
[20] = test system: UO-31; conditions: UO-31, read-out: Log10 LC50 (converted)

SMILES | CC50 [1] [µM] | CC50 [2] [µM] | CC50 [3] [µM] | CC50 [4] [µM] | CC50 [5] [µM] | CC50 [6] [µM] | CC50 [7] [µM] | CC50 [8] [µM] | CC50 [9] [µM] | CC50 [10] [µM] | CC50 [11] [µM] | CC50 [12] [µM] | CC50 [13] [µM] | CC50 [14] [µM] | CC50 [15] [µM] | CC50 [16] [µM] | CC50 [17] [µM] | CC50 [18] [µM] | CC50 [19] [µM] | CC50 [20] [µM] | further results
OCc1ccc(-c2ccc(-c3cccs3)[se]2)s1 | > 100 | > 100 | > 100 | > 100 | > 100 | > 100 | 0.0661 | > 100 | > 100 | > 100 | > 100 | > 100 | > 100 | > 100 | > 100 | > 100 | > 100 | > 100 | > 100 | > 100 | –
O=Cc1ccc(-c2ccc(-c3ccc(C=O)[se]3)[se]2)[se]1 | > 100 | > 100 | > 100 | 95.5 | > 100 | > 100 | 6.76 | > 100 | > 100 | > 100 | > 100 | > 100 | > 100 | > 100 | > 100 | > 100 | > 100 | > 100 | > 100 | > 100 | –
O=Cc1ccc(-c2ccc(-c3cccs3)[se]2)s1 | > 100 | > 100 | > 100 | > 100 | > 100 | > 100 | 0.933 | > 100 | > 100 | > 100 | > 100 | > 100 | > 100 | 53.7 | > 100 | > 100 | > 100 | > 100 | > 100 | > 100 | IC (TGI) ([16]; SNB-75, read-out: Log10 TGI): 57.5 µM
